This note sets out measurements from patent publication US20230263758A1, “COMPOSITIONS OF EDTA HAVING ACTIVITY AGAINST PLANKTONIC AND BIOFILM CELLS OF CLINICALLY RELEVANT PATHOGENS” (SterileCare Inc., priority 2022, published 2023).

Where a name gives a salt, the structure may show the parent alone.

Test [1] concerns E. coli SK2. The test is described as follows: Checkerboard, FMCI. The test is classed as cell-based, Escherichia coli. Particulars: EDTA + chlorhexidine HCl. As to the method:
(§1) An assay was made using a minimum inhibitory concentration (MIC) and minimum bactericidal concentration (MBC) and minimum fungicidal concentration (MFC) determination. The MIC was determined by the micro broth dilution method in 96-well plates. Serial two-fold dilutions of tetrasodium EDTA (from 2% to 0.015%), ethanol (from 50% to 0.1%) and chlorhexidine HCl (from 100 μg/mL to 0.025 μg/mL) were prepared in MH broth with a final volume of 90 μL per well. A 10 μL containing 1×10^5 bacterial cells or 2×10^3 fungal cells were added to each well. The inoculated plates were covered with a lid, sealed with Parafilm, and incubated for 24 h at 37° C. with slight rocking on a tilting platform shaker. After incubation, the optical density at 600 nm (OD 600) of the cultures in each well was measured using an xMark™ Microplate Absorbance Spectrophotometer (Bio-Rad). […] MBCs and MFCs were determined by transferring 100 μL from each well with no apparent growth onto appropriate agar plates, followed by incubation for 24 h at 37° C.
(§2) A fourth composition and solution included tetrasodium EDTA with ethanol or chlorhexidine HCl. […] The concentrations of antimicrobials used were based on previously determined MIC values. […] Microtiter plates were incubated at 37° C. for 24 h, and the results were analyzed. […]

The test system of test [2] is Pseudomonas aeruginosa SK1. The test is described as follows: Checkerboard FBEC index, 48-h biofilm. The test is classed as cell-based. The note with it: P. aeruginosa SK1 biofilm; EDTA + chlorhexidine HCl.
Method: (§4) In step (4), microtiter plates are incubated at 37° C. for 24 h. then (6), after incubation, the bacterial and fungal cells were dislodged from the pegs into the recovery medium described above.
(§5) Three 10-μL aliquots, for a total of 30 μL from each well of recovery medium, were spotted on MH agar plates and incubated for 24 h at 37° C. […] The FBEC determination is a modification of the FICI.
Another test has as its system MRSA ON184. The test is described as follows: Checkerboard titration, FICI. The test is classed as cell-based, Staphylococcus aureus. As to the method: (§3) A fourth composition and solution included tetrasodium EDTA with ethanol or chlorhexidine HCl. This fourth composition and solution were created using checkerboard titration methods using micro broth dilution in 96-well microtiter plates. The concentrations of antimicrobials used were based on previously determined MIC values. Briefly, 200 μL of two-fold dilutions of tetrasodium EDTA and ethanol or chlorhexidine HCl were prepared in MH or MH II broth with standardized cell suspension. […] Microtiter plates were incubated at 37° C. for 24 h, and the results were analyzed. Each test was performed in duplicate and included a growth control without adding any antimicrobials.

The test system of test [3] is Staphylococcus epidermidis SK9. Briefly: Checkerboard FBEC index, 48-h biofilm. The note with it: S. epidermidis SK9 biofilm. The test is classed as cell-based.
Method: as §4, §5
In the next test the test system is Proteus mirabilis ON153. The test is described as follows: Checkerboard, FMCI. Format: cell-based. The note with it: P. mirabilis ON153. As to the method:
as §1, §3

A further test concerns Candida albicans SK4b. Briefly: Checkerboard, FMCI. Format: cell-based. Particulars: C. albicans SK4b. As to the method: as §1, §3
A further test relates to Escherichia coli ON29. The test is described as follows: Checkerboard, FMCI. The test is classed as cell-based. Particulars: E. coli ON29. As to the method:
as §1, §3

Test [4] has as its system Staphylococcus epidermidis ON170. Briefly: Checkerboard, FMCI. The note with it: S. epidermidis ON170. The test is classed as cell-based. As to the method: as §1, §3
Test [5] has as its system Pseudomonas aeruginosa SK1. The test is described as follows: Checkerboard, FMCI. Format: cell-based. The note with it: P. aeruginosa SK1. As to the method:
as §1, §3

For test [6], the system named is Staphylococcus aureus ON89. Briefly: Checkerboard, FMCI. The test is classed as cell-based. Particulars: S. aureus ON89. As to the method: as §1, §3
The test system of the next test is Serratia marcescens SK2. The test is described as follows: Checkerboard, FMCI. Particulars: S. marcescens SK2. Format: cell-based. As to the method:
as §1, §3

Test [7] has as its system Stenotrophomonas maltophilia ON17. The test is described as follows: Checkerboard, FMCI. The test is classed as cell-based. The note with it: S. maltophilia ON17; EDTA + chlorhexidine HCl. As to the method:
as §1, §3

Test [8] has as its system C. albicans ON47. The test is described as follows: Checkerboard, FMCI. Format: cell-based, Candida albicans. Particulars: EDTA + chlorhexidine HCl. As to the method:
as §1, §2

In a further test the test system is Escherichia coli SK2. Briefly: Checkerboard FBEC index, 48-h biofilm. The test is classed as cell-based. The note with it: E. coli SK2 biofilm; EDTA + chlorhexidine HCl.
Test [9] deals with S. epidermidis SK9. Briefly: Checkerboard, FMCI. The test is classed as cell-based, Staphylococcus epidermidis. The note with it: EDTA + chlorhexidine HCl. As to the method:
as §1, §2

The subject of test [10] is C. albicans ON47. Briefly: Checkerboard titration, FICI. The test is classed as cell-based, Candida albicans. As to the method:
as §3

For test [11], the system named is 48-h-old biofilms of bacterial and fungal strains. Briefly: MBEC assay, summary, 24 h exposure of 48-h-old biofilms. Format: cell-based. As to the method:
A biofilm cultivation cell composition was provided. This fifth composition was created using an MBEC Assay® biofilm inoculator, consisting of a polystyrene lid with 96 downward-protruding pegs and a corresponding base used to grow biofilms. A standardized inoculum was diluted in an appropriate biofilm growth medium to achieve a viable cell count of 1.5×10^6 CFU/mL of bacterial cells or 5×10^5 CFU/mL of fungal cells. Then, 150 μL of this inoculum was transferred into each appropriate well, and the peg lids were inserted into the microtiter plates. The plates were sealed with Parafilm and were incubated at optimum temperature for 48 h with slight rocking for bacteria and shaking at 200 rpm for fungal strains. After incubation, the peg lid was removed from the base and rinsed twice with sterile phosphate-buffered saline (PBS) for 2 min to remove loosely attached non-sessile cells. Before the antimicrobial challenge, the pegs in column 1 (n=8) were considered the biofilm growth control; these pegs were removed from the lids, placed into 200 μL of recovery medium, and analyzed for starting biofilm cell numbers as described below. […] After the antimicrobial challenge, the pegs were rinsed twice with sterile PBS for 2 min and placed into a new 96-well plate containing 200 μL of recovery medium. The recovery plates were sealed with Parafilm, and biofilm cells were dislodged from the pegs by sonication for 30 min with a Branson 3510 bath sonicator. The biofilm cells in the recovery medium were serially diluted, and a drop dilution assay was performed to enumerate the viable cells. MBEC values were determined as the minimum concentration of antimicrobials that yielded a viable cell count at or lower than the 125 CFU/mL detection limit.

For test [12], the system named is E. coli SK2. The test is described as follows: Checkerboard titration, FICI. Format: cell-based, Escherichia coli. As to the method:
as §3

Test [13] has as its system S. epidermidis SK9. Briefly: Checkerboard titration, FICI. The test is classed as cell-based, Staphylococcus epidermidis. As to the method:
as §3

Where [14] appears, read: EDTA + chlorhexidine HCl checkerboard.

Method for Escherichia coli SK2: as §4, §5

`[H]/N=C(\N/C(=N/[H])NCCCCCCNC(=N)NC(=N)Nc1ccc(Cl)cc1)Nc1ccc(Cl)cc1` [Chlorhexidine HCl, chlorhexidine HCl, reference compound]: the “Microbicidal concentration in combination” value (“Microbicidal concentration” below) in the test with E. coli SK2 [1] turned out to be 0.2 µg/mL; with Proteus mirabilis ON153 (EDTA + chlorhexidine HCl), 1.6 µg/mL; with Candida albicans SK4b (EDTA + chlorhexidine HCl), 0.8 µg/mL; in the test on Escherichia coli ON29 (EDTA + chlorhexidine HCl) it was 0.2 µg/mL; in test [4] (EDTA + chlorhexidine HCl), 0.4 µg/mL; in test [5] (EDTA + chlorhexidine HCl), 1.6 µg/mL. The “Microbicidal concentration” value in test [6] (EDTA + chlorhexidine HCl) is 0.2 µg/mL; in the test with Serratia marcescens SK2 (EDTA + chlorhexidine HCl), 1.6 µg/mL; in [7] it was 0.4 µg/mL; in the test with C. albicans ON47 [8], 1.6 µg/mL; with S. epidermidis SK9 [9], 0.4 µg/mL. The “Biofilm eradication concentration in combination (FBEC)” value (in test [2]; in test [3] (EDTA + chlorhexidine HCl); with Escherichia coli SK2) was 3.125 µg/mL throughout. For the same compound, the “Inhibitory concentration in combination” value with MRSA ON184 (setting [14]) came to 0.2 µg/mL; in the test on C. albicans ON47 [10] (setting [14]), 0.8 µg/mL; with E. coli SK2 [12] (setting [14]), 0.1 µg/mL; in the test on S. epidermidis SK9 [13] (setting [14]), 0.025 µg/mL. Further, the “Concentration alone able to eradicate all established biofilms following 24 h of treatment” value in test [11] amounted to 100 µg/mL.

As to `O=C([O-])CN(CCN(CC(=O)[O-])CC(=O)[O-])CC(=O)[O-].[Na+].[Na+].[Na+].[Na+]` [EDTA, tetrasodium EDTA], the “Microbicidal concentration” value in the test with E. coli SK2 [1] is listed as 0.015 % w/v; in the test on Proteus mirabilis ON153 (EDTA + ethanol), 0.063 % w/v; in the test with Candida albicans SK4b (EDTA + ethanol) it was 0.25 % w/v; in the test with Escherichia coli ON29 (EDTA + chlorhexidine HCl) it was 0.008 % w/v; with Escherichia coli ON29 (EDTA + ethanol) it was 0.25 % w/v; in [4] (EDTA + chlorhexidine HCl), 0.25 % w/v. The “Microbicidal concentration” value in [4] (EDTA + ethanol) was determined as 0.031 % w/v; in test [5] (EDTA + chlorhexidine HCl) it was 0.031 % w/v; in test [5] (EDTA + ethanol), 0.031 % w/v; in [6] (EDTA + chlorhexidine HCl), 0.008 % w/v; in [6] (EDTA + ethanol), 0.25 % w/v; in the test with Serratia marcescens SK2 (EDTA + ethanol), 0.25 % w/v. For the same compound, the “Microbicidal concentration” value in test [7] came out at 0.031 % w/v; with C. albicans ON47 [8] it was 0.031 % w/v; in the test with S. epidermidis SK9 [9] it was 0.008 % w/v. In addition, the results for the “Biofilm eradication concentration in combination (FBEC)” value (in test [2]; in [3] (EDTA + ethanol); in the test with Escherichia coli SK2) were 0.25 % w/v, 0.031 % w/v and 0.031 % w/v, respectively. Moreover, the “Inhibitory concentration in combination” value came to 0.008 % w/v in the test on MRSA ON184 (setting [14]); 0.015 % w/v in the test on MRSA ON184 (EDTA + ethanol checkerboard); 0.125 % w/v in the test with C. albicans ON47 [10] (setting [14]); 0.25 % w/v in the test on C. albicans ON47 [10] (EDTA + ethanol checkerboard); 0.008 % w/v in the test with E. coli SK2 [12] (setting [14]); 0.015 % w/v in the test on E. coli SK2 [12] (EDTA + ethanol checkerboard). The “Inhibitory concentration in combination” value in the test with S. epidermidis SK9 [13] (setting [14]) and in the test on S. epidermidis SK9 [13] (EDTA + ethanol checkerboard) was 0.015 % w/v throughout. In test [11], the “Concentration alone able to eradicate all established biofilms following 24 h of treatment” value is 4%.
